Results from patent EP1100539B1, “COMBINATION OF ACTIVE SUBSTANCES, ESPECIALLY FOR THE PROPHYLAXIS AND THERAPY OF ISCHAEMIC ORGANIC LESIONS AND REPERFUSION SYNDROMES” (Vascular Biotech GmbH, priority 1998, dated 2000).
Several values for one entry are separate records, joined by “and”; a condition that tells them apart may be missing. Identical values can stand only once. Entries after “also recorded” stand apart in the source; their conditions may differ.

Experiments:
[1] = system: venolären Endothelzellen (VEC); assay: Time-lapse video microscopy of venular endothelial cell layers, opening/sealing of intercellular gaps (Versuchsgruppe 3); format: cell-based; conditions: for Abdichtung der Interzellularspalten: in presence of activated PMN and Thrombozyten (Abb. 3), 50 µM each
Protocol: In vitro kultivierte Schichten aus venolären Endothelzellen (VEC) werden unter Einsatz von Zeitraffervideomikrokinematographie (siehe Abb. 5) mit speziell entwickelter Methodik direkt beobachtet. Die durch aktivierte Thrombozyten (Anwendung von 1 U/ml Thrombin) und aktivierte PMN (Anwendung von 1 µM FMLP) induzierte Öffnung von Endothelbarrieren (= Öffnung der Interzellularspalten der Endothelzellen) kann so im Zeitablauf dokumentiert werden. Als Beispiel dient eine Serie von Aufnahmen, die den direkten Angriff der Blutzellen dokumentiert (Abb. 3) bzw. eine analoge Serie, die mit dem Überstand der aktivierten Blutzellen durchgeführt wurde (Abb. 4).
Die durch die Blutzellen zunächst geweiteten Interzellularspalten werden durch die Wirkstoffe wieder abgedichtet.
Abbildung 5 zeigt den experimentellen Aufbau für die videomikroskopische Beobachtung zellulärer Interaktionen an Endotheloberflächen: A-Gewebekulturmikroskop, B-Spezialinkubator mit Steuereinheit C, D-Gaszylinder mit 5% CO2, E-Waschflasche, F-Videokamera, G-Kamera-Kontroll-Einheit, H-Videorecorder, I-Monitor, J-Fotoapparat.

[2] = system: Meerschweinchenherzen; assay: Working guinea pig heart, ischaemia/reperfusion with activated PMN and platelets (Versuchsgruppe 1); set-up: species or system Meerschweinchen; conditions: for Herzleistung [% der initialen Leistung] / Interstitielles Volumen / Koronarfluß [% des Basalflusses]: flavone derivative 3*10^-5 M, individual hearts
Protocol: Pathogene Wirkung von gleichzeitig aktivierten PMN und Thrombozyten im ischämischen Herzen. Als Studienobjekt dienten arbeitende, also Volumen gegen bestimmte Drucke auswerfende Meerschweinchenherzen. […] Thrombin, FMLP ([…]-Formyl-[…]) und […] Interaktion der Blutzellen mit dem koronaren Endothel bei diesen Versuchen. Tabelle 3: ^i Als Blutzellpräparate wurden eingesetzt: a) hochreine PMN (1-2*10^5/ml), […] Vorinkubation mit 100 μM […]) bzw. […] von PMN und TASS (bzw. T) in jeweils analogen Konzentrationen. Tabelle 3 gibt die unter […] bei […] von PMN und Thrombozyten (TASS = […] Vorinkubation mit 100μM […] = nicht […].

[3] = system: ischämische Herzschäden; conditions: oral, initial 100 mg, then 20-40 mg/d; 17187 Patienten; cited from earlier work
[4] = system: venoläre Endothelzellen; assay: Hydraulic conductivity (LP) across confluent venular endothelial cell layers on porous filters (Versuchsgruppe 2 / Beispiel 12); format: cell-based, Meerschweinchen
Source text: Als Studienobjekt dienten bis zur Konfluenz etablierte Schichten venolärer Endothelzellen auf porösen Filtern, die in einer speziell entwickelten Apparatur zur Trennung zweier Flüssigkeitskompartimente eingesetzt wurden. So konnte z. B. der druckabhängige Wassertransport (hydraulische Konduktivität = LP mit der Dimension 10^-5 cm / s / cm H2O) über die gezüchteten Endothelschichten unter dem Einfluß von Blutzellen unter entzündlichen Bedingungen studiert werden.
Details der Versuchsanordnung gehen aus den Abb. 1 und 2 hervor. Abbildung 1 zeigt ein wiederverwendbares, autoklavierbares Filterspannsystem bestehend aus (1) dem Formteil aus Polycarbonat, (2) dem Polycarbonatfilter, (3) dem stählernen Spannring und (4) dem Haltering aus Polycarbonat. Die Darstellung rechts neben dem Stapel der Einzelteile zeigt einen Querschnitt und eine Aufsicht des zusammengefügten Systems. Abbildung 2 zeigt eine Versuchsapparatur zur Messung hydraulischer Konduktivitäten von konfluenten Zellschichten, (1) Basisteil mit Magnetrührer (1a), (2) basales Flüssigkeitskompartiment mit Stopfen (2a) bzw. Zugang für Eppendorfpipetten (2b), (3) Steigrohr, (4) oberes Flüssigkeitskompartiment, zwischen den Flüssigkeitskompartimenten (2) und (4) liegt der ausgespannte Filter, (5), (6), (7) peristaltische Pumpen, (8) Vorratsgefäß für die Konstanthaltung des hydrostatischen Niveaus im oberen Flüssigkeitskompartiment, (9) Sammelgefäß für filtriertes Volumen.
Der Nachweis der Wirkung von Verbindungen als Hemmstoffe der Kontraktilität von venolären Endothelzellen erfolgt analog zur in Versuchsgruppe 2 charakterisierten Vorgehensweise unter Verwendung der dort beschriebenen Versuchsanordnung (vgl. Abb. 1 und 2) und wird hier am Beispiel des Apigenins (chemische Formel siehe Tabelle 1) dargestellt.
Venoläre Endothelzellen werden unter Verwendung einer speziellen, nachstehend beschriebenen Technik isoliert und auf porösen Polycarbonatfiltern (Porendurchmesser 0,4 µm, Fa. Nucleopore, Pleasanton, USA) unter Verwendung ebenfalls nachstehend beschriebener Zellkulturtechniken bis zur Konfluenz kultiviert. Diese endothelbeschichteten Filter werden in einer speziellen Apparatur (siehe Abb. 1 und 2) zur Trennung zweier Flüssigkeitskompartimente eingesetzt. Als Meßgröße für die Kontraktilität der venolären Endothelzellen dient der druckabhängige Wassertransport (hydraulische Konduktivität = LP mit der Dimension 10^-5 cm / s / cm H2O) über die gezüchteten Endothelschichten, der bei Kontraktion der Endothelzellen durch Übergang von der pflastersteinartigen zur sphärischen Form (vgl. Versuchsgruppe 3 mit Abb. 3 und 4) und die damit einhergehende Öffnung von Interzellularspalten zunimmt
Eine Lösung von Plasmasalzen (=physiologische Salzlösung, Zusammensetzung siehe unten) mit Zusatz von 0,1% Albumin und von aus peripherem Blut wie nachfolgend beschrieben isolierten Granulozyten (=PMN, Konzentration 10^5/ml) und Thrombozyten (10^6/ml) wird mit 1 µM FMLP und 1 U/ml Thrombin versetzt. Durch Zentrifugieren (10 min bei 1000 g) wird der Überstand gewonnen und in das obere Flüssigkeitskompartiment der Versuchsapparatur eingebracht. Dadurch erhöht sich - als Ausdruck der Kontraktion der venoiären Endothelzellen - die hydraulische Konduktivität gegenüber dem Ausgangswert (Nr. 1 in Tabelle 4) um ca. 1600 % (Nr. 10 in Tabelle 4).
Zur Dissoziation des Myokardgewebes werden zunächst mit Krebs-Henseleitlösung (KHL) nach Langendorff bei 120 mmHg 10 min perfundierte Meerschweinchenherzen 35 min lang mit einem in KHL angesetzten Proteasegemisch perfundiert (42 mg Kollagenase D + 60 mg Dispase II + 5 mg Trypsin + 58 mg Serumalbumin aus Rinderblut, gelöst in 42 ml Ca^2+-freier KHL; 1 ml/min; Kollagenase und Dispase: Boehringer, Mannheim, Trypsin: 1:250, Serva, Heidelberg). […]

[5] = FMLP-activated PMN alone (Nr. 4-6), 50 µM
[6] = IPA + PMN (10^5/ml) + Thrombin (1 U/ml) + 1 µM FMLP, substance 50 µM, control without substance 5,40, baseline 1,80
[7] = IPA + supernatant of thrombin-activated Thrombozyten (10^6/ml) and FMLP-activated PMN (10^5/ml), substance 50 µM, control without substance 31,2, baseline 1,80
[8] = PMN+T (platelets not preincubated with Acetylsalicylsäure)
[9] = PMN+TASS (platelets preincubated 1 h with 100 µM Acetylsalicylsäure, washed)

SMILES | Abdichtung der Interzellularspalten [1] | Verschlechterung der postischämischen Funktionsdaten (ΔP/Δt; interstitielles Volumen; Koronarfluß) ([2]; platelets preincubated with 100 µM Acetylsalicylsäure, no flavonoid) | ischämische Herzschäden [3] | Effect on increase of LP [4, 5] | LP [10^-5 cm/s/cm H2O] [4, 6] | LP [10^-5 cm/s/cm H2O] [4, 7] | Herzleistung [% der initialen Leistung] [2, 8] | Interstitielles Volumen [2, 8] | Koronarfluß [% des Basalflusses] [2, 8] | Herzleistung [% der initialen Leistung] [2, 9] | Interstitielles Volumen [2, 9] | Koronarfluß [% des Basalflusses] [2, 9] | Verschlechterung der postischämischen Funktionsdaten (ΔP/Δt; interstitielles Volumen; Koronarfluß) ([2]; acute application of the flavonoid alone) | Verschlechterung der postischämischen Funktionsdaten (ΔP/Δt; interstitielles Volumen; Koronarfluß) ([2]; flavonoid applied in combination with Acetylsalicylsäure) | LP [10^-5 cm/s/cm H2O] ([4]; IPA + PMN (10^5/ml) + Thrombozyten (10^6/ml) + Thrombin (1 U/ml) + 1 µM FMLP, each substance 50 µM, control without substance 33,7, baseline 1,80) | Effect on increase of LP ([4]; simultaneously activated Thrombozyten and PMN (Nr. 7-9), 50 µM each) | Kontraktion der venolären Endothelzellen (hydraulische Konduktivität) ([4]; supernatant of activated PMN and Thrombozyten (Nr. 10, 11), 50 µM) | Abdichtung der Spalten / Reparatur der Endothelschicht ([1]; supernatant of activated PMN and Thrombozyten, blood cells absent (Abb. 4), without Acetylsalicylsäure)
CC(=O)Oc1ccccc1C(=O)O [Acetylsalicylsäure, reference compound] | nicht zur Abdichtung der Interzellularspalten | lediglich teilweisen Abschwächung | signifikant | keinen Effekt | 5,78 ±0,68 10^-5 cm/s/cm H2O | 28,2 ± 1,7 10^-5 cm/s/cm H2O | – | – | – | – | – | – | – | – | – | – | – | –
O=c1cc(-c2ccc(O)cc2)oc2cc(O)cc(O)c12 [Apigenin] | – | – | – | keine Erhöhung von LP | 1,75 ± 0,06 10^-5 cm/s/cm H2O | 1,90 ± 0,07 10^-5 cm/s/cm H2O | 52 % der initialen Leistung and 67 % der initialen Leistung and 74 % der initialen Leistung and 73 % der initialen Leistung and 64 % der initialen Leistung and 71 % der initialen Leistung | 142 µL/g and 201 µL/g and 177 µL/g and 166 µL/g and 130 µL/g | 56 % des Basalflusses (2×) and 49 % des Basalflusses and 53 % des Basalflusses and 59 % des Basalflusses and 65 % des Basalflusses | 94 % der initialen Leistung and 96 % der initialen Leistung and 89 % der initialen Leistung and 88 % der initialen Leistung and 97 % der initialen Leistung | 95 µL/g and 120 µL/g and 105 µL/g and 102 µL/g and 97 µL/g and 91 µL/g | 102 % des Basalflusses and 107 % des Basalflusses and 98 % des Basalflusses and 95 % des Basalflusses and 91 % des Basalflusses and 109 % des Basalflusses | abgeschwächt | vollständig aufgehoben | 25,5 ± 4,1 10^-5 cm/s/cm H2O | hemmt diesen Effekt nur schwach | fast vollständig gehemmt | –
C[C@@H]1O[C@@H](OC[C@H]2O[C@@H](Oc3c(-c4ccc(OCCO)c(OCCO)c4)oc4cc(OCCO)cc(O)c4c3=O)[C@H](O)[C@@H](O)[C@@H]2O)[C@H](O)[C@H](O)[C@H]1O [Trihydroxyethylrutosid] | nicht zur Abdichtung der Interzellularspalten | – | – | – | – | – | – | – | – | – | – | – | – | – | – | – | – | fast vollständige Reparatur der Endothelschicht; also recorded: Endothel-reparativen Effekt
